Results taken from PubChem BioAssay AID248 (DTP/NCI, 2004).
Toxic doses and inconclusive results are not listed. No stated cut-off is given here; in the data, active means T/C of 150% or more; inactive means T/C below 125%.

Tested on: L1210 leukemia ip in BDF1 mice, survival T/C
Experiment: NCI In Vivo Anticancer Drug Screen. Data for tumor model L1210 Leukemia (intraperitoneal) in B6D2F1 (BDF1) mice
Details: endpoint: mean survival time, higher = longer survival
In short: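 Antitumor effect is assessed in tumor-bearing animals. Survival in the compound arm is compared with a vehicle-dosed control arm and expressed as their quotient.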

[1] = dose: 100.0 mg/kg/injection, schedule: Q04DX003 (ip), vehicle: Klucel (hydroxypropylcellulose) (HPC)
[2] = dose: 200.0 mg/kg/injection, schedule: Q04DX003 (ip), vehicle: Klucel (hydroxypropylcellulose) (HPC)
[3] = dose: 400.0 mg/kg/injection, schedule: Q04DX003 (ip), vehicle: Klucel (hydroxypropylcellulose) (HPC)
[4] = dose: 50.0 mg/kg/injection, schedule: Q01DX009 (ip), vehicle: saline with Tween-80
[5] = dose: 100.0 mg/kg/injection, schedule: Q01DX009 (ip), vehicle: saline with Tween-80
[6] = dose: 100.0 mg/kg/injection, schedule: Q04DX003 (ip), vehicle: saline
[7] = dose: 200.0 mg/kg/injection, schedule: Q04DX003 (ip), vehicle: saline
[8] = dose: 100.0 mg/kg/injection, schedule: Q01DX009 (ip), vehicle: Klucel (hydroxypropylcellulose) (HPC)
[9] = dose: 200.0 mg/kg/injection, schedule: Q01DX009 (ip), vehicle: Klucel (hydroxypropylcellulose) (HPC)
[10] = dose: 200.0 mg/kg/injection, schedule: Q01DX009 (ip), vehicle: saline with Tween-80

Measured: T/C

CC1(C)C2CCC1(C)C(NCc1cc(Cl)cc(Cl)c1O)C2 (stereo not drawn)
inactive: [1] 92 % of control | [2] 103 % of control | [3] 98 % of control

NC(Cc1nn[nH]n1)C(=O)O (stereo not drawn)
inactive: dose: 100.0 mg/kg/injection, schedule: Q01DX009 (ip), vehicle: water 102 % of control | dose: 100.0 mg/kg/injection, schedule: Q04DX003 (ip), vehicle: water 96 % of control | dose: 200.0 mg/kg/injection, schedule: Q01DX009 (ip), vehicle: water 102 % of control | dose: 200.0 mg/kg/injection, schedule: Q04DX003 (ip), vehicle: water 94 % of control | dose: 400.0 mg/kg/injection, schedule: Q01DX009 (ip), vehicle: water 98 % of control | dose: 400.0 mg/kg/injection, schedule: Q04DX003 (ip), vehicle: water 88 % of control

COC(=O)CC(=O)c1cc(C(C)(C)C)cc(C(C)(C)C)c1
inactive: dose: 100.0 mg/kg/injection, schedule: Q04DX003 (ip), vehicle: DMSO 96 % of control | dose: 200.0 mg/kg/injection, schedule: Q04DX003 (ip), vehicle: DMSO 103 % of control

COc1ccccc1OC(=O)Nc1ccc(C)c([N+](=O)[O-])c1
inactive: dose: 25.0 mg/kg/injection, schedule: Q01DX009 (ip), vehicle: saline with Tween-80 95 % of control | [4] 118 % of control | [5] 92 % of control

[N-]=[N+]=NC(=O)C1(Br)CCC2c3ccccc3C([N+](=O)[O-])(C1)c1ccccc12 (stereo not drawn)
inactive: [6] 101 % of control | [7] 98 % of control | dose: 400.0 mg/kg/injection, schedule: Q04DX003 (ip), vehicle: saline 93 % of control

CC1=C(N2CCN(c3ccc(Cl)cc3)CC2)C(=O)CC(C)(C)C1
inactive: dose: 100.0 mg/kg/injection, schedule: Q01DX001 (ip), vehicle: saline 97 % of control | dose: 200.0 mg/kg/injection, schedule: Q01DX001 (ip), vehicle: saline 101 % of control | dose: 400.0 mg/kg/injection, schedule: Q01DX001 (ip), vehicle: saline 103 % of control

CCCCCCCSc1nsc(SCCCCCCC)c1C#N
inactive: [8] 104 % of control | [9] 114 % of control | dose: 400.0 mg/kg/injection, schedule: Q01DX009 (ip), vehicle: Klucel (hydroxypropylcellulose) (HPC) 101 % of control

NCC1OC(OC2C(N)CC(N)C(O)C2O)C(NC(=O)c2ccccc2)C(O)C1O (stereo not drawn)
inactive: [1] 91 % of control | [2] 96 % of control | [3] 91 % of control

Nc1cc(C(=O)Nc2ccc(S(=O)(=O)O)cc2)ccc1C(=O)Nc1ccc(S(=O)(=O)O)cc1
inactive: dose: 31.0 mg/kg/injection, schedule: Q01DX Z (ip), vehicle: water 87 % of control | dose: 62.5 mg/kg/injection, schedule: Q01DX Z (ip), vehicle: water 100 % of control | dose: 125.0 mg/kg/injection, schedule: Q01DX Z (ip), vehicle: water 97 % of control | dose: 250.0 mg/kg/injection, schedule: Q01DX Z (ip), vehicle: water 95 % of control | dose: 500.0 mg/kg/injection, schedule: Q01DX Z (ip), vehicle: water 97 % of control

ON=c1c2ccccc2c2ccccc2c2ccccc12
inactive: dose: 75.0 mg/kg/injection, schedule: Q04DX002 (ip), vehicle: gum acacia 109 % of control | dose: 150.0 mg/kg/injection, schedule: Q04DX002 (ip), vehicle: gum acacia 105 % of control | dose: 300.0 mg/kg/injection, schedule: Q04DX002 (ip), vehicle: gum acacia 105 % of control

CSc1ccc(NS(=O)(=O)CCNC(=O)C(O)C(C)(C)CO)cc1 (stereo not drawn)
inactive: [5] 100 % of control | dose: 100.0 mg/kg/injection, schedule: Q04DX003 (ip), vehicle: saline with Tween-80 104 % of control | [10] 103 % of control | dose: 200.0 mg/kg/injection, schedule: Q04DX003 (ip), vehicle: saline with Tween-80 96 % of control | dose: 400.0 mg/kg/injection, schedule: Q01DX009 (ip), vehicle: saline with Tween-80 92 % of control | dose: 400.0 mg/kg/injection, schedule: Q04DX003 (ip), vehicle: saline with Tween-80 109 % of control

O=C1CCSc2ccccc21
inactive: dose: 37.5 mg/kg/injection, schedule: Q01DX009 (ip), vehicle: saline 102 % of control | dose: 75.0 mg/kg/injection, schedule: Q01DX009 (ip), vehicle: saline 111 % of control | dose: 100.0 mg/kg/injection, schedule: Q01DX001 (ip), vehicle: carboxymethylcellulose (CMC) 92 % of control | dose: 100.0 mg/kg/injection, schedule: Q01DX009 (ip), vehicle: saline sonified 105 % of control | dose: 100.0 mg/kg/injection, schedule: Q04DX003 (ip), vehicle: other 96 % of control | dose: 150.0 mg/kg/injection, schedule: Q01DX009 (ip), vehicle: saline 104 % of control | dose: 200.0 mg/kg/injection, schedule: Q01DX001 (ip), vehicle: carboxymethylcellulose (CMC) 106 % of control | dose: 200.0 mg/kg/injection, schedule: Q01DX009 (ip), vehicle: saline sonified 93 % of control | dose: 200.0 mg/kg/injection, schedule: Q04DX003 (ip), vehicle: other 96 % of control | dose: 400.0 mg/kg/injection, schedule: Q01DX001 (ip), vehicle: carboxymethylcellulose (CMC) 111 % of control | dose: 400.0 mg/kg/injection, schedule: Q01DX009 (ip), vehicle: saline sonified 97 % of control | dose: 400.0 mg/kg/injection, schedule: Q04DX003 (ip), vehicle: other 102 % of control

O=[N+]([O-])c1ccc(Cc2ccccc2)cc1 (tested in a mixture with another compound)
inactive: dose: 100.0 mg/kg/injection, schedule: Q04DX002 (ip), vehicle: saline with Tween-80 101 % of control | dose: 200.0 mg/kg/injection, schedule: Q04DX002 (ip), vehicle: saline with Tween-80 101 % of control | dose: 400.0 mg/kg/injection, schedule: Q04DX002 (ip), vehicle: saline with Tween-80 97 % of control

c1ccc2nc(NN=C3CCCCC3)ccc2c1
inactive: dose: 10.0 mg/kg/injection, schedule: Q01DX001 (ip), vehicle: saline 107 % of control | dose: 20.0 mg/kg/injection, schedule: Q01DX001 (ip), vehicle: saline 97 % of control | dose: 40.0 mg/kg/injection, schedule: Q01DX001 (ip), vehicle: saline 95 % of control

Cc1cc(OC(=O)Nc2cccc(Cl)c2)ccc1[N+](=O)[O-]
inactive: [8] 101 % of control | [1] 90 % of control | [9] 101 % of control | [2] 95 % of control | [3] 90 % of control

Nc1ncc(CBr)c(N)n1
inactive: [6] 97 % of control | [7] 96 % of control

O=[N+]([O-])CC1c2ccccc2Nc2ccccc21
inactive: [4] 93 % of control | [5] 107 % of control | [10] 100 % of control

COc1ccc(CNC(C)(C)CO)c(OC)c1
inactive: dose: 75.0 mg/kg/injection, schedule: Q01DX001 (ip), vehicle: saline 101 % of control | dose: 150.0 mg/kg/injection, schedule: Q01DX001 (ip), vehicle: saline 102 % of control | dose: 300.0 mg/kg/injection, schedule: Q01DX001 (ip), vehicle: saline 98 % of control

CN1C(=O)C2(C)CCC1c1ccccc12 (stereo not drawn)
inactive: dose: 100.0 mg/kg/injection, schedule: Q01DX001 (ip), vehicle: other 103 % of control | dose: 200.0 mg/kg/injection, schedule: Q01DX001 (ip), vehicle: other 103 % of control
